Measured values published in the OPERA property sets (Mansouri et al. 2018).

SMILES | logP
CC(C)CS(=O)c1sccc1[N+](=O)[O-] (stereo not drawn) | 2.93
COc1c(C#N)sc(S(C)=O)c1C#N (stereo not drawn) | 2.02
CCCCCC(=O)c1ccc(S(=O)CC)c([N+](=O)[O-])c1 (stereo not drawn) | 4.36
Cc1sc(S(C)=O)c([N+](=O)[O-])c1C (stereo not drawn) | 2.65
CC(=O)c1sc(S(C)=O)c(-c2ccc(Cl)cc2)c1C (stereo not drawn) | 3.82
CCS(=O)c1cnc2ccccc2n1 (stereo not drawn) | 2.29
CS(=O)c1cccs1 (stereo not drawn) | 0.91
CCS(=O)c1ccc2ccccc2n1 (stereo not drawn) | 2.43
CC(=O)c1sc(S(C)=O)c(-c2ccc(Cl)cc2)c1N (stereo not drawn) | 3.18
CCCS(=O)c1sccc1[N+](=O)[O-] (stereo not drawn) | 2.52
CS(=O)c1scc(-c2ccccc2)c1[N+](=O)[O-] (stereo not drawn) | 3.2
CS(=O)c1sccc1[N+](=O)[O-] (stereo not drawn) | 1.69
CCS(=O)c1ccc(C(C)=O)s1 (stereo not drawn) | 1.31
Cc1c(C#N)sc(S(C)=O)c1-c1ccccc1 (stereo not drawn) | 3.36
Cc1csc(S(C)=O)c1[N+](=O)[O-] (stereo not drawn) | 2.19
CS(=O)c1sccc1Br (stereo not drawn) | 1.71
Cc1c(C#N)sc(S(C)=O)c1-c1ccc(Cl)cc1 (stereo not drawn) | 3.8
CCS(=O)c1ccc(C(=O)c2ccccc2)cc1[N+](=O)[O-] (stereo not drawn) | 3.82
CC(=O)c1sc(S(C)=O)c(C#N)c1-c1ccc(Cl)cc1 (stereo not drawn) | 3.31
CCS(=O)c1ccc(Cl)cc1S(C)(=O)=O (stereo not drawn) | 2.31
CCS(=O)c1ccc([N+](=O)[O-])cn1 (stereo not drawn) | 1.74
CS(=O)c1ccsc1 (stereo not drawn) | 0.91
CS(=O)c1ccc([N+](=O)[O-])s1 (stereo not drawn) | 1.4
CS(=O)c1nc(-c2ccccc2)cc(C(F)(F)F)n1 (stereo not drawn) | 3.01
CCS(=O)c1nc(C)c([N+](=O)[O-])c(C)c1C#N (stereo not drawn) | 2.44
CCCCCC1(c2ccc(S(=O)CC)c([N+](=O)[O-])c2)OCCO1 (stereo not drawn) | 5.11
CCC(=O)c1ccc(S(=O)CC)c([N+](=O)[O-])c1 (stereo not drawn) | 2.8
CC(=O)c1sc(S(C)=O)c(-c2ccccc2)c1C (stereo not drawn) | 3.26

The remaining lines, values ahead:

logP | SMILES
2.1 | CCS(=O)c1c(Cl)cncc1Cl (stereo not drawn)
1.82 | CCS(=O)c1sc(C(C)=O)c(N)c1C#N (stereo not drawn)
2.15 | CS(=O)c1sc(C#N)c(Cl)c1C#N (stereo not drawn)
2.22 | CCS(=O)c1sc(C#N)c(C)c1C(C)=O (stereo not drawn)
2.81 | CCS(=O)c1sc(C(C)=O)c(C)c1[N+](=O)[O-] (stereo not drawn)
2.22 | CCS(=O)c1sc(C(C)=O)c(C)c1C#N (stereo not drawn)
2.95 | CCCS(=O)c1sc(C#N)c(Cl)c1C#N (stereo not drawn)
1.31 | CS(=O)c1sc(C#N)cc1C#N (stereo not drawn)
3.44 | CCCCS(=O)c1sc(C#N)c(Cl)c1C#N (stereo not drawn)
2.64 | CCCCS(=O)c1sc(C#N)cc1C#N (stereo not drawn)
1.78 | CCS(=O)c1sc(C#N)cc1C#N (stereo not drawn)
2.31 | CCS(=O)c1sc(Cl)cc1C#N (stereo not drawn)
2.27 | CCOC(=O)c1cc(C#N)c(S(C)=O)s1 (stereo not drawn)
0.96 | CS(=O)c1sccc1C#N (stereo not drawn)
2.64 | CCS(=O)c1sc(C(C)=O)c(Cl)c1C#N (stereo not drawn)
2.06 | CCS(=O)c1sccc1[N+](=O)[O-] (stereo not drawn)
2.15 | CCS(=O)c1ccc([N+](=O)[O-])cc1C#N (stereo not drawn)
1.77 | CCS(=O)c1nc(C)cc(C)c1C#N (stereo not drawn)
2.35 | CCS(=O)c1sc(C#N)c(OC)c1C#N (stereo not drawn)
2.18 | CCCS(=O)c1sc(C#N)cc1C#N (stereo not drawn)
